Strand notation (5' to 3'): a small letter for the sugar, then the base; units joined by * are phosphorothioate-linked, units joined directly phosphodiester-linked; [ ] holds rarer units or linkages, { } end groups; capitals alone tell only the bases. e = 2'-O-(2-methoxyethyl) (MOE); k = constrained ethyl (cEt); [5mC] = 5-methylcytosine; d = 2'-deoxy (DNA); m = 2'-O-methyl
system: Yap1 mRNA; assay: Antisense inhibition of human Yap1 in SNU-449 cells by modified oligonucleotides, single dose (Example 5, RTS36584); type: cell-based; settings: Table 39; SNU-449 cells, 10,000 cells per well, free uptake, 2,000 nM oligonucleotide, approx. 48 hours; RTS36584; normalized to RIBOGREEN; Yap1 mRNA relative to untreated control
Procedure, shortened: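 Values are Yap1 mRNA as percent of untreated control cells, measured by quantitative real-time RT-PCR using RTS36584 and normalised to total RNA by RIBOGREEN. Cells were SNU-449, dosed by free uptake at 2,000 nM for approximately 48 hours.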

In order of rising “YAP1 (% UTC)” value:
1. 1198385 (kA*dT*dA*dT*dT*dA*dG*dA*dG*dT*dA*kT*eG*kT*eG*kG; antisense) [Compound 1198385]  30 % UTC
2. 1198387 (kT*d[5mC]*dT*dA*dT*dA*dT*dT*dA*dG*dA*kG*eT*kA*eT*kG; antisense) [Compound 1198387]  84 % UTC

same assay, conditions: Table 40 (separate experiment); SNU-449 cells, 10,000 cells per well, free uptake, 2,000 nM oligonucleotide, approx. 48 hours; RTS36584; normalized to RIBOGREEN; Yap1 mRNA relative to untreated control

In the case of “1198751 (kT*eT*kG*dG*dA*dA*dG*dA*dT*d[5mC]*dT*dG*eA*eA*kA*k[5mC]; antisense) [Compound 1198751]”, the “YAP1 (% UTC)” value was 76 % UTC.

same assay, conditions: Table 41; SNU-449 cells, 10,000 cells per well, free uptake, 2,000 nM modified oligonucleotide, approximately 48 hours; RTS36584; normalized to RIBOGREEN; Yap1 mRNA relative to untreated control cells

In order of falling “YAP1 (% UTC)” value:
1. 1198645 (kT*k[5mC]*dT*dA*dT*dA*dT*dT*dA*dG*dA*dG*kT*eA*kT*eG; antisense) [Compound 1198645]  73 % UTC
2. 1198667 (antisense kA*kG*dT*dG*d[5mC]*dT*dT*dT*dG*dG*dA*dA*kG*eA*kT*e[5mC]) [Compound 1198667]  40 % UTC
3. 1198790 (antisense kT*eA*kA*dA*dG*dT*dG*dT*dA*dT*dG*dT*e[5mC]*eA*kG*kA) [Compound 1198790]  27 % UTC
4. 1198628 (TGTCTCATGCCTTATA; modified gapmer, chemistry not fully specified) [Compound 1198628]  27 % UTC

same assay, conditions: Table 42 (separate experiment); SNU-449 cells, 10,000 cells per well, free uptake, 2,000 nM modified oligonucleotide, approximately 48 hours; RTS36584; normalized to RIBOGREEN; Yap1 mRNA relative to untreated control cells

In order of falling “YAP1 (% UTC)” value:
1. 1198223 (k[5mC]*kT*dT*dT*dT*dA*d[5mC]*dA*dT*dT*dA*eG*eG*eA*kA*k[5mC]) [Compound 1198223]  94 % UTC
2. 1198646 (kT*kA*dT*dA*dA*d[5mC]*dT*dG*dG*dG*d[5mC]*dA*kA*eA*kT*eT) [Compound 1198646]  80 % UTC
3. 1198713 (kT*kT*dA*dG*dA*d[5mC]*dT*dA*dA*dG*dT*dA*kA*eG*kG*eT; antisense) [Compound 1198713]  62 % UTC
4. 1198201 (kA*kA*dA*dT*dT*dG*dT*d[5mC]*dT*d[5mC]*dA*eT*eG*e[5mC]*k[5mC]*kT; antisense) [Compound 1198201]  34 % UTC
5. 1198213 (kA*kT*dA*dT*dT*dA*dG*dA*dG*dT*dA*eT*eG*eT*kG*kG; antisense) [Compound 1198213]  16 % UTC

same assay, conditions: Table 43 experiment; SNU-449 cells, 10,000 cells per well, free uptake, 2,000 nM, approximately 48 hours; RTS36584; Yap1 mRNA normalized to RIBOGREEN, relative to untreated control cells

In order of falling “YAP1 (% UTC)” value:
1. 1198260 (kT*kA*dA*dT*dA*dT*dT*dG*d[5mC]*dA*dA*eT*e[5mC]*eT*kG*kT; antisense) [Compound 1198260]  106 % UTC
2. 1198257 (kA*dT*dT*dG*d[5mC]*dA*dA*dT*d[5mC]*dT*dG*eT*e[5mC]*eT*kG*kA; antisense) [Compound 1198257]  85 % UTC
3. 1198271 (kT*kT*dA*dA*dA*dG*dT*dG*dT*dA*dT*eG*eT*e[5mC]*kA*kG) [Compound 1198271]  44 % UTC

same assay, conditions: Table 44 experiment; SNU-449 cells, 10,000 cells per well, free uptake, 2,000 nM, approximately 48 hours; RTS36584; Yap1 mRNA normalized to RIBOGREEN, relative to untreated control cells

In order of falling “YAP1 (% UTC)” value:
1. 1198512 (kA*kA*d[5mC]*dT*d[5mC]*dT*dT*dA*dT*dA*dT*eG*kG*eT*kT*eT; antisense) [Compound 1198512]  62 % UTC
2. 1198493 (antisense kT*kG*d[5mC]*dT*dT*dT*dG*dG*dA*dA*dG*eA*kT*e[5mC]*kT*eG) [Compound 1198493]  28 % UTC
3. 1198537 (k[5mC]*kT*dA*dA*dG*dT*dA*dA*dG*dG*dT*eT*kT*e[5mC]*k[5mC]*e[5mC]; antisense) [Compound 1198537]  24 % UTC

same assay, conditions: Table 45; Yap1 mRNA as percent of untreated control, SNU-449 cells, single dose

In order of rising “YAP1 (% UTC)” value:
1. 1198934 (kA*kT*dT*dT*dA*dG*dG*dA*dT*dG*d[5mC]*kA*dT*kG*dG*kT; antisense) [Compound 1198934]  56 % UTC
2. 1198933 (kT*kT*dT*dA*dG*dG*dA*dT*dG*d[5mC]*dA*kT*dG*kG*dT*kT; antisense) [Compound 1198933]  69 % UTC
3. 1198974 (kA*kG*dA*d[5mC]*dT*dA*dA*dG*dT*dA*dA*kG*dG*kT*dT*kT; antisense) [Compound 1198974]  73 % UTC

same assay, conditions: Table 46; Yap1 mRNA as percent of untreated control, SNU-449 cells, single dose

In order of falling “YAP1 (% UT)” value:
1. 1198806 (antisense kA*kA*dT*dT*dG*dT*d[5mC]*dT*d[5mC]*dA*dT*kG*e[5mC]*k[5mC]*eT*kT) [Compound 1198806]  33 % UT
2. 1198867 (kG*kT*dA*dA*dT*dA*dT*dT*dG*d[5mC]*dA*kA*eT*k[5mC]*eT*kG; antisense) [Compound 1198867]  25 % UT
3. 1198818 (antisense kT*kA*dT*dT*dA*dG*dA*dG*dT*dA*dT*kG*eT*kG*eG*k[5mC]) [Compound 1198818]  15 % UT

same assay, conditions: Table 48; Yap1 mRNA level relative to untreated control; modified oligonucleotides targeting SEQ ID NO.: 1 and 2

In order of falling “YAP1 (% UT)” value:
1. 1197203 (antisense kA*kA*k[5mC]*dT*d[5mC]*dT*dT*dA*dT*dA*dT*dG*dG*kT*kT*kT) [Compound 1197203]  68 % UT
2. 1198344 (kA*kT*kA*dT*dT*dG*d[5mC]*dA*dA*dT*d[5mC]*dT*kG*eT*k[5mC]*eT; antisense) [Compound 1198344]  55 % UT
3. 1197200 (antisense kT*kT*kA*dT*dA*dT*dG*dG*dT*dT*dT*dT*dG*kT*kG*kT) [Compound 1197200]  49 % UT
4. 1198311 (k[5mC]*kA*k[5mC]*dT*dT*dT*dT*dA*d[5mC]*dA*dT*dT*kA*eG*kG*eA; antisense) [Compound 1198311]  39 % UT

same assay, conditions: Table 49; Yap1 mRNA level relative to untreated control; modified oligonucleotides targeting SEQ ID NO.: 1 and 2

In order of falling “YAP1 (% UT)” value:
1. 1198549 (antisense kA*kT*kG*dG*dA*dA*dA*dT*dT*dG*dT*d[5mC]*kT*k[5mC]*kA*eT) [Compound 1198549]  84 % UT
2. 1198582 (antisense kA*kT*kA*dG*dT*dG*d[5mC]*dT*dT*dT*dG*dG*kA*kA*kG*eA) [Compound 1198582]  63 % UT

same assay, conditions: Table 50; Yap1 mRNA remaining as percent of untreated control (UT), SNU-449 cells, single dose

In order of falling “YAP1 (% UT)” value:
1. 1198600 (antisense kG*kA*k[5mC]*dA*dA*d[5mC]*dT*d[5mC]*dT*dT*dA*dT*kA*kT*kG*eG) [Compound 1198600]  72 % UT
2. 1197232 (antisense kA*kT*kA*dT*mG*dG*dA*dA*dA*dT*dT*dG*dT*k[5mC]*kT*k[5mC]) [Compound 1197232]  55 % UT
3. 1198604 (antisense kT*kA*kA*dT*dA*dT*dT*dG*d[5mC]*dA*dA*dT*k[5mC]*kT*kG*eT) [Compound 1198604]  48 % UT

same assay, conditions: Table 51; Yap1 mRNA remaining as percent of untreated control (UT), SNU-449 cells, single dose

In order of falling “YAP1 (% UT)” value:
1. 1197297 (GTGCUTTGGAAGATCT; cEt/MOE gapmer, phosphorothioate, 5-methylcytosine, chemistry not fully specified) [Compound 1197297]  25 % UT
2. 1200786 (kA*kA*kT*dT*dG*mU*d[5mC]*dT*d[5mC]*dA*dT*dG*d[5mC]*k[5mC]*kT*kT; antisense) [Compound 1200786]  21 % UT
3. 1197309 (kG*kT*kA*dA*mU*dA*dT*dT*dG*d[5mC]*dA*dA*dT*k[5mC]*kT*kG; antisense) [Compound 1197309]  11 % UT

same assay, conditions: Table 52; Yap1 mRNA, modified oligonucleotides targeting SEQ ID NO: 1 and 2

In order of rising “YAP1 (% UT)” value:
1. 1200868 (kT*kA*kA*dG*dT*mA*dA*dG*dG*dT*dT*dT*d[5mC]*k[5mC]*k[5mC]*kA; antisense) [Compound 1200868]  36 % UT
2. 1200816 (kG*k[5mC]*kA*d[5mC]*dT*mU*dT*dT*dA*d[5mC]*dA*dT*dT*kA*kG*kG; antisense) [Compound 1200816]  37 % UT
3. 1200871 (kG*kA*k[5mC]*dT*dA*mA*dG*dT*dA*dA*dG*dG*dT*kT*kT*k[5mC]; antisense) [Compound 1200871]  65 % UT
4. 1200842 (k[5mC]*kT*k[5mC]*dT*dT*mA*dT*dA*dT*dG*dG*dT*dT*kT*kT*kG; antisense) [Compound 1200842]  168 % UT

same assay, conditions: Yap1 mRNA, percent of untreated control; modified oligonucleotides targeting SEQ ID NO: 1 and 2; Table 47

In order of rising “YAP1 (% UT)” value:
1. 1198875 (kA*kA*dA*dG*dT*dG*dT*dA*dT*dG*dT*k[5mC]*eA*kG*eA*kA; antisense) [Compound 1198875]  5 % UT
2. 1197220 (antisense kT*kA*kA*dG*dG*dT*dT*dT*d[5mC]*d[5mC]*d[5mC]*dA*dG*kA*kT*kT) [Compound 1197220]  32 % UT
3. 1197183 (antisense kA*k[5mC]*kT*dT*dT*dT*dA*d[5mC]*dA*dT*dT*dA*dG*kG*kA*kA) [Compound 1197183]  41 % UT
4. 1197221 (antisense kA*kG*kT*dA*dA*dG*dG*dT*dT*dT*d[5mC]*d[5mC]*d[5mC]*kA*kG*kA) [Compound 1197221]  42 % UT
5. 1197226 (antisense kA*kG*kA*d[5mC]*dT*dA*dA*dG*dT*dA*dA*dG*dG*kT*kT*kT) [Compound 1197226]  67 % UT
6. 1097238 (antisense kA*kT*kT*dG*d[5mC]*dA*dA*dT*d[5mC]*dT*dG*dT*d[5mC]*kT*kG*kA) [Compound 1097238]  77 % UT
7. 1198860 (kA*kA*d[5mC]*dT*d[5mC]*dT*dT*dA*dT*dA*dT*kG*eG*kT*eT*kT; antisense) [Compound 1198860]  82 % UT
8. 1197182 (antisense kT*kT*kT*dT*dA*d[5mC]*dA*dT*dT*dA*dG*dG*dA*kA*k[5mC]*kA) [Compound 1197182]  115 % UT

From US11214803B2, “Modulators of YAP1 expression” (Ionis Pharmaceuticals, Inc., priority 2019, dated 2022)
